This note sets out measurements from PMC7383614, “Computational Design of Enantiocomplementary Epoxide Hydrolases for Asymmetric Synthesis of Aliphatic and Aromatic Diols” (Chembiochem, 2020).

The test addresses T1, LEH-P (thermostable limonene epoxide hydrolase) (Rhodococcus erythropolis, UniProt Q9ZAG3, T2A/S15P/A19K/E45K/T76K/T85V/N92K/Y96F, form not given).
T1 construct: gene limA; N-terminal hexa-His tag; expressed in E. coli; dimeric
Put plainly: initial velocities of diol formation, Michaelis-Menten fit. In kind it is biochemical. The note with it: buffer and temperature of kinetics not given (activity assays: 50 mM HEPES pH 8, 30 °C); variant SS16 from earlier study, mutations not given; read-out: K M [mM] ^[b]. The source says: initial velocities of diol formation, Michaelis-Menten fit on LEH-P (thermostable limonene epoxide hydrolase)

T1 sequence (Q9ZAG3 whole entry T2A/S15P/A19K/E45K/T76K/T85V/N92K/Y96F, form open): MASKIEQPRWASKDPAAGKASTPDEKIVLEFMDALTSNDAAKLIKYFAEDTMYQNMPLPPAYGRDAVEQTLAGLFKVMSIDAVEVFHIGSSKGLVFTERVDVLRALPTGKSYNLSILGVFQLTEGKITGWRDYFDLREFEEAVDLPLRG

Regarding `C1CC2OC2C1` (stereo not shown) [1 a, cyclopentene oxide], the Km stood at 54 ± 4 mM.
